We go through three compounds from patent US20230233533A1, “COMPOSITIONS, METHODS OF TREATING AND PREVENTING FUNGAL INFECTIONS, AND METHODS OF INHIBITING PRP8 INTEIN EXPRESSION” (Health Research, Inc., priority 2020, published 2023).

Where two headings read alike, the source gives them in different places. A value given as a limit tells only on which side of the number the result lay.

The target in series [1] is T1, Prp8 intein (Cryptococcus gattii, UniProt E6R027). The series can be described thus: Split Renilla luciferase RLuc-Prp8 intein splicing assay. The note with it: split Renilla luciferase RLuc-Prp8 intein splicing. The class given is biochemical. The protocol:
Split luciferase Prp8 intein splicing assay—The split RLuc-Prp8 fusion protein was carried out and monitored using a Veritas luminometer, as described previously.
Split luciferase RLuc-Prp8 and NnLuc-Prp8 intein splicing assays—The split RLuc-Prp8 intein splicing assay was carried out and monitored using a Veritas luminometer, as described previously. […] Microbes. Infect. […] For NnLuc-Prp8 intein splicing assay, the NnLuc-prp8 is diluted in assay buffer (50 mM Tris, 0.1% BSA, 1 mM EDTA, pH 7.4) and 50 ul is added to each well in 96 well black plates. Test molecules or the solvent was added and incubated for 30 to 60 min. A splicing inducer TCEP (50 ul, 100 μM) is added and incubated for 24 h. Luciferase substrate (Furimazine, 25 ul 1:10,000 diluted) is added and luminescence is read using a luminescence reader. IC50 is calculated using Graphpad prism.

Series [2] relates to human lung carcinoma cell line A549. The series is described as follows: in vitro. The format is cell-based. The following applies: 48 h, MTT. Put shortly: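 A549 cells (5×10^3 per well) were exposed to compounds at 37 °C for 48 h, and viability was read by MTT assay; N=3.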
Series [3] addresses T1, Prp8 intein. The series can be described thus: Split GFP-Prp8i intein splicing assay. The format is biochemical. The following applies: for IC50: split GFP-Prp8 intein splicing.
The subject of another series is C. neoformans H99 strain. The series can be described thus: Fungal susceptibility test, broth microdilution MIC. The class given is cell-based, Cryptococcus neoformans. The note with it: C. neoformans H99, microbroth dilution; read-out: MIC H99. Put shortly:
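Compound MICs were determined by broth microdilution using a compound concentration series.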
Background: In broth dilution the organism is exposed to a series of concentrations in liquid medium.

For the next series, the system named is trypsin. The series can be described thus: Trypsin protease inhibition (Abz FRET substrate). The format is biochemical. The following applies: compound at 400 μM. How it is done:
(§1) Trypsin and papain protease inhibition—An Abz FRET substrate (Abz-RRRRSAG-nTyr) developed previously (Li et al., “Existing Drugs as Broad-Spectrum and Potent Inhibitors for Zika Virus by Targeting NS2B-NS3 Interaction,” Cell Research 27(8):1046-1064 (2017), which is hereby incorporated by reference in its entirety) was used as the substrate for inhibition of trypsin and papain proteases. In black and clear-bottom 96-well plates, 1 μg trypsin (Sigma-Aldrich) was incubated with DMF or compounds at 400 μM at 25° C. for 30 min in a 70 μl reaction buffer containing 20 mM Tris, pH 8.0, 100 mM NaCl, 5% Glycerol, and 0.05% CHAPS. For papain, 1 μg Papain (Sigma-Aldrich) was incubated with compounds at 400 μM at 25° C. for 30 min in a 70 μl reaction buffer composed of 1.1 mM EDTA, 0.067 mM β-mercaptoethanol, 5.5 mM cysteine. […]

The target of series [4] is T1, Prp8 intein. The note with it: value from Li et al. 2019; read-out: IC50 determined using the RLuc-Prp8 assay; cited from earlier work.
Another series deals with T2, papain (Carica papaya, UniProt P00784).
T2 construct: purchased Sigma-Aldrich
T2 sequence (P00784 134-345): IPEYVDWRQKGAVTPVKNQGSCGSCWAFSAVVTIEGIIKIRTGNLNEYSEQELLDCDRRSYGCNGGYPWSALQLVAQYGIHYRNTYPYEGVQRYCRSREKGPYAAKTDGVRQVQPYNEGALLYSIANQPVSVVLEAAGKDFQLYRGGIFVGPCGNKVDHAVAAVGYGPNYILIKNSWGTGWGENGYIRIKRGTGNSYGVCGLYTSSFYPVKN
The series is described as follows: Papain protease inhibition (Abz FRET substrate). The class given is biochemical. The note with it: compound at 400 μM. How it is done:
as §1

T1 sequence (E6R027 entry or part of it): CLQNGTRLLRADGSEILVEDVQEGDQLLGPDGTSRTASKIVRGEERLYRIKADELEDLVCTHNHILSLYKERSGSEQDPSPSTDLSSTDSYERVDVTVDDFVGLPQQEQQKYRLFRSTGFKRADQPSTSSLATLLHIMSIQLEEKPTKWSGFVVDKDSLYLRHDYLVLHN

The IC50 is the concentration that gives 50% inhibition. One may read the CC50 as the concentration that lowers cell viability or growth by half. A high value points to lower toxicity to the cells. As to “5-((4-Chlorophenyl)sulfonyl)-N-(6-fluoropyridin-3-yl)-1,2,3-thiadiazole-4-carboxamide [JMX0581]”, the IC50 against Prp8 intein [1] was 11.2 µM; at Prp8 intein [3], 6.1 µM. In series [2], this compound yielded a CC50 of 92.4 µM.

A word on the MIC: it is the smallest concentration in the dilution series that meets the test's criterion for growth inhibition. Regarding “5-((4-Chlorophenyl)thio)-N-(6-fluoropyridin-3-yl)-1,2,3-thiadiazole-4-carboxamide [JMX0580]”, the IC50 against Prp8 intein [1] was determined as 6.4 µM; against Prp8 intein [3] it was 35.3 µM. For the same compound, it took 33.1 µM to reach half-maximal cytotoxicity in series [2] (CC50). For the same compound, the MIC in the series on C. neoformans H99 strain is over 100 µM.

As for `N.N.[Cl][Pt][Cl]` [cisplatin, reference compound], the “inhibition of trypsin protease activity” value in the series on trypsin is given as “neither 6G-318S, 6G-319S, nor cisplatin significantly inhibited”. Moreover, the IC50 was 2.5 µM on Prp8 intein [4] and 6.7 µM on Prp8 intein [3]. The “fluorescence increase of the GFP-Prp8i fusion” value on Prp8 intein [3] (cisplatin 40 μM, GFP-Prp8i 200 nM) is “significantly reduced”. In addition, the “inhibition of papain protease activity” value against papain is reported as “neither 6G-318S, 6G-319S, nor cisplatin significantly inhibited”.
